# Measured values published in PMC5680195, “Structural basis of small molecule ATPase inhibition of a human mitotic kinesin motor protein” (Scientific Reports, 2017).
# Assays:
# KIFC1 = molecular target: T1, KIFC1 (Homo sapiens, UniProt Q9BW19, T368P); assay: X-ray crystal structure, […] A; conditions: Mg2+; nucleotide-binding cleft; 5-fold molar excess Mg-ADP added; pH 7.5; 18 °C
# T1 construct: motor domain N307-C663 with PCR-induced T368P (loop L2, disordered), pFBOH-LIC, Hi-Five insect cells, Ni-NTA purified
# T1 sequence (Q9BW19 307-663 T368P): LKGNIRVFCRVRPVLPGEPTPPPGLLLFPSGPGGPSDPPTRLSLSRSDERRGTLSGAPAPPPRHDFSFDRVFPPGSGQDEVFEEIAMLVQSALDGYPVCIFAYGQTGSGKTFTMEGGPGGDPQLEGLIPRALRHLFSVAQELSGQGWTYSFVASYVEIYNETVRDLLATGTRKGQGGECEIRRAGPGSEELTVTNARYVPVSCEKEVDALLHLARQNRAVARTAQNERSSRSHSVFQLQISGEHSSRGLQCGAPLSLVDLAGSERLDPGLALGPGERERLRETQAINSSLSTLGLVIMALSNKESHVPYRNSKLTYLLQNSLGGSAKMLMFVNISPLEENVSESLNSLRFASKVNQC
# KIFC3 = molecular target: T2, KIFC3 (Homo sapiens, UniProt Q9BVG8); assay: X-ray crystal structure, […] A; conditions: Mg2+; nucleotide-binding cleft; no added nucleotide stated; pH 7.5; 18 °C
# T2 construct: motor domain K443-L770, p28a-LIC (EF442785 is printed beside the vector), E. coli BL21-CodonPlus (DE3)-RIL, HisTrap purified
# T2 sequence (Q9BVG8 443-770): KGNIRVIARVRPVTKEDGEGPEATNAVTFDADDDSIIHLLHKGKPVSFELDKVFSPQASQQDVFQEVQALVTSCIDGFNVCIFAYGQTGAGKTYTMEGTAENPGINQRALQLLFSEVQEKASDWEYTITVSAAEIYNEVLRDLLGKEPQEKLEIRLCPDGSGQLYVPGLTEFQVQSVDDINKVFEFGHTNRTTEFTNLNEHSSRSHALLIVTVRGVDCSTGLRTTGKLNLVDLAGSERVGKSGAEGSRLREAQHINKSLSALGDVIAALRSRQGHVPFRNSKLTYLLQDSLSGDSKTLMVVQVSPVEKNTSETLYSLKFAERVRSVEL
smiles,measurement,setting,value
Nc1ncnc2c1ncn2[C@@H]1O[C@H](COP(=O)(O)OP(=O)(O)O)[C@@H](O)[C@H]1O [ADP],"X-ray crystal structure, 2.25 A",KIFC1,Both proteins were crystallized bound to Mg-ADP and are reported here for the first time
same,"X-ray crystal structure, 1.85 A",KIFC3,Both proteins were crystallized bound to Mg-ADP and are reported here for the first time
